Measured values reported in ChEMBL document CHEMBL1201862, “PubChem BioAssay data set” (2004).
Calls of active or inactive are those of the source.

Columns and labels:
[1] = Luminescence Cell-Based Dose Confirmation HTS to Identify Inhibitors of Platelet Dense Granule Release. [Related pubchem assays: 1663 (Primary HTS), 1678 (Summary of Project)]; format: functional
[2] = target: Luciferin 4-monooxygenase (Photinus pyralis, UniProt P08659); experiment: inhibition of purified Photinus pyralis luciferase – biochemical, luminescence, dose response (AID 1891)
Chain of Luciferin 4-monooxygenase (P08659 whole entry): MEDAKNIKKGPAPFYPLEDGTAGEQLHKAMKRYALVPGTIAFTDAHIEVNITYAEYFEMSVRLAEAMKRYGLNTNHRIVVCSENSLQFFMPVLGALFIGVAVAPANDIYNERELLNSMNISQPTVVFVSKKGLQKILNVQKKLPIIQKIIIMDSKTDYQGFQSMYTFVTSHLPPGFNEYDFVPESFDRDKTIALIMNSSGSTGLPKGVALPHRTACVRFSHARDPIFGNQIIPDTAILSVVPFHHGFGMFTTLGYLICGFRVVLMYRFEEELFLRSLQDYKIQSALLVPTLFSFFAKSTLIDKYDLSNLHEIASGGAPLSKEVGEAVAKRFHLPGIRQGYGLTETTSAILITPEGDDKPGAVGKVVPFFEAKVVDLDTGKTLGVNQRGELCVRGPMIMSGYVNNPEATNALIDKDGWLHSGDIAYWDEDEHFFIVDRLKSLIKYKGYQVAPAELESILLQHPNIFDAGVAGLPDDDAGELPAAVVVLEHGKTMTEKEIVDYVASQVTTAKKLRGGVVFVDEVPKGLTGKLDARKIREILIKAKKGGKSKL

[3] = target: 1-phosphatidylinositol 4,5-bisphosphate phosphodiesterase gamma-1 (Homo sapiens, UniProt P19174); experiment: Counterscreen for inhibitors of phospholipase C isozymes (PLC-B3): Fluorescence-based biochemical high throughput dose response assay to identify inhibitors of phospholipase C isozymes (PLC-gamma1).
Chain of 1-phosphatidylinositol 4,5-bisphosphate phosphodiesterase gamma-1 (P19174 whole entry): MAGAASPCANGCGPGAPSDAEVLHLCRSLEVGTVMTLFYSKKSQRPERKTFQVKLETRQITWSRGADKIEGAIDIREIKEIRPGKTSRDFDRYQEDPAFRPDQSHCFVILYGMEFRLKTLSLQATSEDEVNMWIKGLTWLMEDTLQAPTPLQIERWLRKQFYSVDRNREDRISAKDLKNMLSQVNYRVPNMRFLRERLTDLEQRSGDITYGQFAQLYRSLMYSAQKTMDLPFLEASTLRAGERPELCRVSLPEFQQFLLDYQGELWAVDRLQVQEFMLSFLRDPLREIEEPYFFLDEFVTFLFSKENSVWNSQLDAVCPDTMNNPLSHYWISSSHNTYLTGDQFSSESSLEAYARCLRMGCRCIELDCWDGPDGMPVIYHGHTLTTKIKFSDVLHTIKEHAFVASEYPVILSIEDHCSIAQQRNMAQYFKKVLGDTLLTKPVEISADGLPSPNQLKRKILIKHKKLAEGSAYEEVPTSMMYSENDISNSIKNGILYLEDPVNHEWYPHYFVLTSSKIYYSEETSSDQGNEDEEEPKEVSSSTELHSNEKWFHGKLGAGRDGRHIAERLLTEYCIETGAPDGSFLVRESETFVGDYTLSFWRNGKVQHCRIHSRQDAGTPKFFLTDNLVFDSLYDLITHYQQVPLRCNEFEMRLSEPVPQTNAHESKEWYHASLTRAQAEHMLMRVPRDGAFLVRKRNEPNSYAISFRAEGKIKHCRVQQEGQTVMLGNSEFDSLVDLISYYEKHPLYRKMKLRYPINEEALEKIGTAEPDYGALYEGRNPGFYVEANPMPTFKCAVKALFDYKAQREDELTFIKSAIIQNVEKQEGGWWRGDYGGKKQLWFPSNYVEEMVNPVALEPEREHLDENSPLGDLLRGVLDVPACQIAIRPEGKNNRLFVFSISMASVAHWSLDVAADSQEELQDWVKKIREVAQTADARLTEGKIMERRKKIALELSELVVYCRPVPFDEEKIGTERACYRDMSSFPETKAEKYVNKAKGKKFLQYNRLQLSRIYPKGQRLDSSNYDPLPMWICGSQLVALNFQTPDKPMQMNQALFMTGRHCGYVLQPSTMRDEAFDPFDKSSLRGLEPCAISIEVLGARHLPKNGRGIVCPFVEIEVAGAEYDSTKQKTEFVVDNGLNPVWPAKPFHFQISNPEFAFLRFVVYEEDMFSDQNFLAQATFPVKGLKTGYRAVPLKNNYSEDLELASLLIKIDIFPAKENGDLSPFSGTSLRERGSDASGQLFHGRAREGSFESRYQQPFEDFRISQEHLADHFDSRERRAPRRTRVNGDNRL

[4] = target: 1-phosphatidylinositol 4,5-bisphosphate phosphodiesterase beta-3 (Homo sapiens, UniProt Q01970); experiment: Fluorescence-based biochemical high throughput dose response assay to identify inhibitors of phospholipase C isozymes (PLC-B3).
Chain of 1-phosphatidylinositol 4,5-bisphosphate phosphodiesterase beta-3 (Q01970 whole entry): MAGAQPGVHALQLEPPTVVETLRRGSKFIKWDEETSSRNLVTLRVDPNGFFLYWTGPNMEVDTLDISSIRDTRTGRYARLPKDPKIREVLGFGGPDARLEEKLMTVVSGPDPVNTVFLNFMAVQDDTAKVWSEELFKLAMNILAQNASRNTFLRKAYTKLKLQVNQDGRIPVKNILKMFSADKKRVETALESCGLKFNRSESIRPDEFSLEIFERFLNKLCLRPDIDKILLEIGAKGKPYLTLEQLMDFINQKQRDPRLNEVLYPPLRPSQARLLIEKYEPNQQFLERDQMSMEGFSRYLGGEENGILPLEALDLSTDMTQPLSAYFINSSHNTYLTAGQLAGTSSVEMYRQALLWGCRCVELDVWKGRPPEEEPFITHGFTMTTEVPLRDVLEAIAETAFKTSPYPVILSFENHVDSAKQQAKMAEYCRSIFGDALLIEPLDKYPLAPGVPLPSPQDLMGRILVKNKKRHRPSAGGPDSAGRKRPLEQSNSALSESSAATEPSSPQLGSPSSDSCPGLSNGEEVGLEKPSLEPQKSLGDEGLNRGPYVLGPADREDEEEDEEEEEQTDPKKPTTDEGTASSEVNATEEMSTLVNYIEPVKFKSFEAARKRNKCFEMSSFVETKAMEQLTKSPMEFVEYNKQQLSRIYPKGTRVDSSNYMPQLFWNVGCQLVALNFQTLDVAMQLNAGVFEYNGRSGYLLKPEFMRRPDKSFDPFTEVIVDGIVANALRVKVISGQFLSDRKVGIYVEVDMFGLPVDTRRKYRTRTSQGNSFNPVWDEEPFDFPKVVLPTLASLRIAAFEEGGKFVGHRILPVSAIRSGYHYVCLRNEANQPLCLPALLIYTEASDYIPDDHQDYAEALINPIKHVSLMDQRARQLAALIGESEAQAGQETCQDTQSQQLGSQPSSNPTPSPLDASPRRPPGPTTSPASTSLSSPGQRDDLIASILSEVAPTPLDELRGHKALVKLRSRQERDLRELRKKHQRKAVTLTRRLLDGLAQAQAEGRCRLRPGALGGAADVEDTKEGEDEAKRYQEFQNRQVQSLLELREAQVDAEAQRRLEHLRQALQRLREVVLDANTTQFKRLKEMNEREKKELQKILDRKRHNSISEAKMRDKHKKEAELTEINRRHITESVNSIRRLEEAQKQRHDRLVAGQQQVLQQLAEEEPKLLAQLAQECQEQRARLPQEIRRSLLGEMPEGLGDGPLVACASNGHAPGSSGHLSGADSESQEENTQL

[5] = target: T1, Sentrin-specific protease 7 (Homo sapiens, UniProt Q9BQF6); format: functional;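 further: Luminescence-based dose-response confirmation of ultra-high-throughput screening hits, measuring inhibition of SENP7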
T1 sequence (Q9BQF6 whole entry): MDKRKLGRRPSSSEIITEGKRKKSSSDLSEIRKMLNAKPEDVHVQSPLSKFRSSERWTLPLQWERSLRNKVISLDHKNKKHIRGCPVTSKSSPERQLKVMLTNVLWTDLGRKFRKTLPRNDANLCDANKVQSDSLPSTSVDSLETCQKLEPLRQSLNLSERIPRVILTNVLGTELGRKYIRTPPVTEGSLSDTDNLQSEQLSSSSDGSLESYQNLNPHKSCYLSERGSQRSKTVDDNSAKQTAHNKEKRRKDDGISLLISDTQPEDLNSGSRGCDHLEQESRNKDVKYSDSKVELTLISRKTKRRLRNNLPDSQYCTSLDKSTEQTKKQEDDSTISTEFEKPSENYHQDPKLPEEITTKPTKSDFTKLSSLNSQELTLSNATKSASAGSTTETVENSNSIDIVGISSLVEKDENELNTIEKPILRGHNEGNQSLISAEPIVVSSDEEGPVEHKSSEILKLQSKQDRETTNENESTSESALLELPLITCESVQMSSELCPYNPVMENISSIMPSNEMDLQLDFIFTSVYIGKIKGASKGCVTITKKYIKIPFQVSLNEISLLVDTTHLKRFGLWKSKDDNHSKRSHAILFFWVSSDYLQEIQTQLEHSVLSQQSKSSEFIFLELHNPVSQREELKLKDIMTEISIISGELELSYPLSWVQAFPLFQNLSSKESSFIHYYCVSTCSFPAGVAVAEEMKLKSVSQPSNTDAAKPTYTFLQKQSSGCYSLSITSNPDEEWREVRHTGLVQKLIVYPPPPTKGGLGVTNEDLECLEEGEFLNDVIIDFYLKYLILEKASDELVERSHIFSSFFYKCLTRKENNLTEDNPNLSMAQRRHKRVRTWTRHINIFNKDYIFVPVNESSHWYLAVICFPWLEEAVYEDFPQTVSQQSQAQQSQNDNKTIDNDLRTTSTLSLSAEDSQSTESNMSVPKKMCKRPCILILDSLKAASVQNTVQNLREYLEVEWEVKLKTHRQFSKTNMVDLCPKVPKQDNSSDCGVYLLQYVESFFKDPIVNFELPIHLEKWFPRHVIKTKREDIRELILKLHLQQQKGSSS

[6] = target: T2, Caspase-3 (Homo sapiens, UniProt P42574); format: functional;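 further: Dose-response selectivity test against caspase-3 for candidate inhibitors of sentrin-specific proteases (SENPs)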
T2 sequence (P42574 whole entry): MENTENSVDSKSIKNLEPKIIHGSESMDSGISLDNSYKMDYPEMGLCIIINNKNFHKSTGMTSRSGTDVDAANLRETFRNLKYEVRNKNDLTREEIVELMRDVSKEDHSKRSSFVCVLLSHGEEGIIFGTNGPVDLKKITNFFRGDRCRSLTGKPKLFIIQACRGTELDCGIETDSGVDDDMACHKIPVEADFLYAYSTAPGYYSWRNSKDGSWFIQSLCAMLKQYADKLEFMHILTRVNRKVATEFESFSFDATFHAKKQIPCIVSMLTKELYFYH

[7] = target: T3, Sentrin-specific protease 6 (Homo sapiens, UniProt Q9GZR1); format: functional;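 further: Luminescence-based dose-response confirmatory assay of SENP6 inhibition, following up an ultra-high-throughput screen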
T3 sequence (Q9GZR1 whole entry): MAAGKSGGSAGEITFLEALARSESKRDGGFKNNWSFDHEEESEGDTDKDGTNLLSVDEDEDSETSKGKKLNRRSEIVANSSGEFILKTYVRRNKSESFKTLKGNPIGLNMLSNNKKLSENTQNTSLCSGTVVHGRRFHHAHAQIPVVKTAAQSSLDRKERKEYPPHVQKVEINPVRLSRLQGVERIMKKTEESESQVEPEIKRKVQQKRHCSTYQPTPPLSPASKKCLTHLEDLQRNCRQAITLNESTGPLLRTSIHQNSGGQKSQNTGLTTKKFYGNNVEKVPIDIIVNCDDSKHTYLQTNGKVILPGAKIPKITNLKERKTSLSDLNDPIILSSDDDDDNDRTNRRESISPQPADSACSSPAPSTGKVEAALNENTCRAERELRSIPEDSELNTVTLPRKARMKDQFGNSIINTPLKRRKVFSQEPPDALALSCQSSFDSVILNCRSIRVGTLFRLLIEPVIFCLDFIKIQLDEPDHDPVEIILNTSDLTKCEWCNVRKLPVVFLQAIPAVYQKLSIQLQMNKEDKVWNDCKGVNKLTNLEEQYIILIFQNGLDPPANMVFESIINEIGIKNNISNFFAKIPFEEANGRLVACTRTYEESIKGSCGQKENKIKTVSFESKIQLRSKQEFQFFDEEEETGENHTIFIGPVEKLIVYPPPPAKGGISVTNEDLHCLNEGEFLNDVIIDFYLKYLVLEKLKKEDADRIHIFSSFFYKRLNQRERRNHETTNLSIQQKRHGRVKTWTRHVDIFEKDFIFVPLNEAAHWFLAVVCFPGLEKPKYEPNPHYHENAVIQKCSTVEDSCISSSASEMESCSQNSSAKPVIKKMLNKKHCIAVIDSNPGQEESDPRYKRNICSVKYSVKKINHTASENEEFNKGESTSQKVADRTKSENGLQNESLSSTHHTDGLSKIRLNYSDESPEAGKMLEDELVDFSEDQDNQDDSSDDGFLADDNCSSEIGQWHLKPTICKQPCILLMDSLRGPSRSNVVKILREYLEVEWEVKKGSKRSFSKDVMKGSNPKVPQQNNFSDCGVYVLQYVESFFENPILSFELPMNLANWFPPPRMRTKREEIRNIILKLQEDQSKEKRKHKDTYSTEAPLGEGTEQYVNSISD

[8] = target: T4, Sentrin-specific protease 8 (Homo sapiens, UniProt Q96LD8); format: functional;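 further: luminescence read-out of SENP8 inhibition, dose-response confirmation following an ultra-high-throughput screen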
T4 sequence (Q96LD8 whole entry): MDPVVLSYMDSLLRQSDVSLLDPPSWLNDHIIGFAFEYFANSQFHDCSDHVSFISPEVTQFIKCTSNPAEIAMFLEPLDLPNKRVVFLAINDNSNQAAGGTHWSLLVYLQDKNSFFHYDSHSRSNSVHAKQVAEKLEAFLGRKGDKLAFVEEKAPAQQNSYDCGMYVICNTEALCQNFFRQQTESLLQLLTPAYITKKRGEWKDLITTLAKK

[9] = Luminescence-based cell-based high throughput dose response assay to identify activators of the DAF-12 from the parasite S. stercoralis (ssDAF-12).; format: functional
[10] = target: T5, Oxysterols receptor LXR-beta (Homo sapiens, UniProt P55055); format: functional, cell-based;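 further: agonist activity at LXR measured by a cell-based luminescence readout across a dose range, run as a counterscreen for daf-12 agonists; potency for activation of Gal4-LXR reporter so compounds are agonists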
T5 sequence (P55055 whole entry): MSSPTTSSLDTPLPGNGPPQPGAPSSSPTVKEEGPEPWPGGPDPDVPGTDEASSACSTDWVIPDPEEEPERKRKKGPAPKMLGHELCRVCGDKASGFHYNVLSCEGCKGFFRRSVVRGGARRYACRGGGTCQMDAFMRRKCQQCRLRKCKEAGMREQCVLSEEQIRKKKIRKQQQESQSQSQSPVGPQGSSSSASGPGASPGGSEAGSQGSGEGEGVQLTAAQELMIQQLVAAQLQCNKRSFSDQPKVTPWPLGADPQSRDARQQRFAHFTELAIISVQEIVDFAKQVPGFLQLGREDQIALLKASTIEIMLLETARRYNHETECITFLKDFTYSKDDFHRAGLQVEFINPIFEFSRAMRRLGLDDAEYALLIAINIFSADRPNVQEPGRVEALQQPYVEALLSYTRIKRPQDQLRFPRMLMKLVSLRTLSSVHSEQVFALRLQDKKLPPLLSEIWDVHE

[11] = target: T5, Oxysterols receptor LXR-beta; experiment: LXR agonists, Gal4 luciferase reporter, dose response, counter-screen for ssDAF-12 agonist project, cell-based, luminescence, HEK293, S. stercoralis campaign (AID 720737); format: functional; conditions: read-out: IC50 (the source's name)
[12] = target: Kallikrein-7 (Homo sapiens, UniProt P49862); experiment: Fluorescence Intensity-based biochemical primary high throughput dose response assay to identify activators of kallikrein-7 (K7) zymogen.
Chain of Kallikrein-7 (P49862 whole entry): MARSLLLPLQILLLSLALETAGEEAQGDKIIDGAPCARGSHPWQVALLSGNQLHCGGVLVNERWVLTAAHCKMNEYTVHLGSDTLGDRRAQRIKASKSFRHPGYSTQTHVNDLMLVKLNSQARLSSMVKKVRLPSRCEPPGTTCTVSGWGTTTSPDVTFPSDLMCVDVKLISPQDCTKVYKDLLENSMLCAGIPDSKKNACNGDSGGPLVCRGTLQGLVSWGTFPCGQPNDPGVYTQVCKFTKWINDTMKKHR

[13] = Luminescence Cell-Based Dose Confirmation HTS to Identify Activators of 5'UTR Stem-Loop Driven Alpha-Synuclein mRNA Translation in H4 Neuroglioblastoma Cells. [Related pubchem assays: 1829 (Project Summary), 1814 (Primary HTS)]; format: functional
[14] = system: Vero; experiment: viability of Vero cells under compound – cytotoxicity control for flavivirus capping enzyme inhibitors (AID 588742); format: functional; conditions: Chlorocebus sabaeus
[15] = system: H4; experiment: Luminescence Cell-Based Dose Response HTS to Identify Activators of 5'UTR Stem-Loop Driven Prion Protein mRNA Translation in H4 Neuroglioblastoma Cells. [Related pubchem assays: 1829 (Project Summary), 1814 (Primary HTS)]; format: functional; conditions: Homo sapiens
[16] = IC50 of Artemis nuclease activity blockers – biochemical, fluorescence intensity, dose response (AID 720701); format: functional;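 further: Artemis endonuclease enzyme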
[17] = Luminescence Cell-Based Dose Response HTS to Identify Activators of Luciferase Translation or Activity in H4 […] Cells. [Related pubchem assays: 1829 (Project Summary), 1814 (Primary HTS)]; format: functional
[18] = inhibitors of non-replicating M. tuberculosis, dose response, luciferase, dry powder (AID 651620); format: functional; conditions: Mycobacterium tuberculosis
[19] = growth inhibition of replicating M. tuberculosis, dose response, counter-screen, dry powder, IC90 (AID 651617); format: functional; conditions: Mycobacterium tuberculosis
[20] = inhibitors of non-replicating M. tuberculosis, dose response, luciferase, dry powder (AID 651619); format: functional; conditions: Mycobacterium tuberculosis
[21] = cervical cancer cell viability loss – HeLa, 24 h, plate reader, powder samples, set 3, cytotoxicity control, dose response (AID 651864); format: functional, cell-based
[22] = inhibitors of TRPM1-promoter reporter in SK-MEL-5 – cell-based, luciferase, dry powder, set 9, MITF inhibitor project, dose response (AID 651588); format: functional
[23] = growth inhibition of SK-MEL-5 melanoma cells – cell-based, CellTiter-Glo luminescence, dry powder, set 8, orthogonal assay for MITF inhibitor project, dose response (AID 651586); format: functional
[24] = MITF: Counter assay: A375 proliferation Measured in Cell-Based System Using Plate Reader - 2084-03_Inhibitor_Dose_DryPowder_Activity_Set8.; format: functional; conditions: A-375
[25] = inhibitors of TRPM1-promoter reporter in SK-MEL-5 – cell-based, luciferase, dry powder, set 8, MITF inhibitor project, dose response (AID 624430); format: functional
[26] = MITF Orthogonal Assay: SK-MEL-5 CTG Assay Measured in Cell-Based System Using Plate Reader - 2084-02_Inhibitor_Dose_DryPowder_Activity_Set7.; format: functional
[27] = melanocyte viability loss, MITF-dependent cells, cell-based, plate reader, dry powder, cytotoxicity control, dose response (AID 651920); format: functional
[28] = MITF Orthogonal Assay: MALME3 CTG Assay Measured in Cell-Based System Using Plate Reader - 2084-04_Inhibitor_Dose_DryPowder_Activity_Set6.; format: functional; conditions: MALME-3
[29] = growth inhibition of MALME3 cells – cell-based, CellTiter-Glo luminescence, dry powder, set 5, orthogonal assay for MITF inhibitor project, dose response (AID 651584); format: functional; conditions: MALME-3
[30] = cytotoxicity in MITF-independent A375 cells – cell-based, CellTiter-Glo luminescence, dry powder, set 9, counter-screen for MITF modulator project, dose response (AID 651591); format: functional; conditions: A-375
[31] = viability loss in CEM21 cells – cell-based, plate reader, dry powder, cytotoxicity control, dose response (AID 687026); format: functional
[32] = inhibition of Env-driven cell fusion – HIV entry, plate reader, dry powder, dose response (AID 687023); format: functional, cell-based

Structure (SMILES): Nc1ncnc2c1ncn2[C@@H]1O[C@H](COP(=O)(O)O)[C@@H](O)[C@H]1O
- EC50 [1]: 1.13 µM (active)
- EC50 [2]: 1.48 µM (active)
- IC50 [3]: 13.2 µM (inactive)
- IC50 [4]: > 122 µM (inactive)

Structure (SMILES): Cc1csc(NC(=O)c2ccc3ccccc3n2)n1
- IC50 [5]: 5.25 µM (active)
- IC50 [6]: 6.96 µM (active)
- IC50 [7]: 11 µM (active)
- IC50 [8]: 16.2 µM (active)
- IC50 [9]: > 67.6 µM (inactive)
- EC50 [10]: > 67.6 µM (inactive)
- EC50 [11]: > 67.6 µM (inactive)

Structure (SMILES): CC1(C)CC(=O)C2=C(C1)c1c(ccc3ccccc13)NC2c1ccc(OCC(=O)O)cc1 (configuration not stated)
- EC50 [12]: > 69.5 µM (inactive)

Structure (SMILES): O=C(Nc1ccc2oc(-c3cccc4ccccc34)nc2c1)c1nc[nH]n1
- EC50 [13]: 0.627 µM (active)
- CC50 [14]: > 40 µM (active)
- EC50 [15]: 5.42 µM (active)
- IC50 [16]: 7.47 µM (active)
- EC50 [17]: 15.8 µM (active)

Structure (SMILES): c1ccc(-c2nnc(SCc3ccncc3)o2)cc1
- IC90 [18]: 31 µM (active)
- IC90 [19]: 250 µM (active)
- IC90 [20]: 31 µM (active)

Structure (SMILES): CCc1ccccc1NCc1ccc(N2CCCC2)cc1
- AC50 [21]: 149 µM (active)

Structure (SMILES): O=C1C=C(Nc2ccc([N+](=O)[O-])c(C(F)(F)F)c2)C(=O)c2ccccc21
- AC50 [22]: 15.3 µM (active)
- AC50 [23]: 36.1 µM (active)
- AC50 [24]: > 70 µM (inactive)
- AC50 [25]: 5.19 µM (active)
- AC50 [26]: 1.06 µM (active)
- AC50 [27]: 8.56 µM (active)
- AC50 [28]: 27.7 µM (active)
- AC50 [29]: 27.7 µM (active)
- AC50 [30]: > 70 µM (inactive)

Structure (SMILES): Cc1noc(C)c1S(=O)(=O)Nc1cccc2c1O[C@@H](CN(C)Cc1ccc(C(F)(F)F)cc1)[C@@H](C)CN([C@H](C)CO)C2=O
- AC50 [31]: > 70 µM (inactive)
- AC50 [32]: 18.6 µM (active)
